The text below walks through data of US20100286035A1, “NEUROMEDIN U DERIVATIVE” (Takeda Pharmaceutical Company Limited, priority 2007, published 2010).

Structures are written as SMILES.

The target in one assay is T1, Human FM3 (Homo sapiens, UniProt Q9HB89).
T1 construct: expressed in transfected cells; host or cells: CHO (dhfr-) cells; membrane fraction
T1 sequence (Q9HB89 1-426 R203Q): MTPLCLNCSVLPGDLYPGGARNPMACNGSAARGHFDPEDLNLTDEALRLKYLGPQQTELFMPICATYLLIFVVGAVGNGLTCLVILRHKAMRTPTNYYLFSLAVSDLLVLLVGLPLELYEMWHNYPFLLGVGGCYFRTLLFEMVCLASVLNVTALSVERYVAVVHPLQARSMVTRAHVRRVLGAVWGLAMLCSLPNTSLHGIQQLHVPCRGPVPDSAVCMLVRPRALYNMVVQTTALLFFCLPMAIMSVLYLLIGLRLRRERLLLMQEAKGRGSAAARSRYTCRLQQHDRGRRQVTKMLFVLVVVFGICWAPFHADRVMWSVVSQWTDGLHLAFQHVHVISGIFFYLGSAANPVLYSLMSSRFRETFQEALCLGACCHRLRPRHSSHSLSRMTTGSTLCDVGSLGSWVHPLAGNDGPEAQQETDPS
Kind of assay: Receptor binding study: 125I-NMU 8 labeled ligand binding inhibition to the FM3 membrane fraction. Conditions: FM3/CHO membrane fraction, 25° C. for 60 min, read-out: FM3 RBA IC50. How it is done:
Human FM3 represented CHO cells (dhfr-) and human TRI represented CHO cells (dhfr-) were cultured under 5% carbon dioxide conditions at 37° C. using a 10% dialyzed FBS-containing MEMα (Invitrogen) culture. The adhered cells were peeled with 10 ml of 0.1 mM EDTA containing DPB-S (Invitrogen) and cells were recovered by centrifugal separation at 4° C. at 1000 rpm for 10 min. 15 ml of homogenizer buffer (10 mM NaHCO3 (pH 7.4), 5 mM EDTA, Protein Inhibitors=0.5 mM PMSF, 10 μg/ml Pepstatin A, 20 μg/ml Leupeptin, 4 μg/ml E-64) were added to the cell pellets obtained. […]
Next, the reactivity between the radiation labeled ligand ^125I-NMU 8 and each receptor represented cell membrane fraction was analyzed by scatchard analysis using a reactive buffer (50 mM HEPES (pH 6.8), 1 mM EDTA, 0.1% BSA, Protein Inhibitors). […]
Namely, dilution strings of NMU derivatives and PEG conjugates were provided and diluted membrane fraction solutions (200 μl) were added. […] According to the aforementioned operations, the amount of binding of the labeled ligand remaining in the filter was measured and the IC50 values were calculated using graph pad PRISM (FIG. 4A (FM3 receptor binding), FIG. 4B (TGR1 receptor binding), FIG. 4C (FM3 receptor binding), FIG. 4D (TGR1 receptor binding) Table 9).

The test system of the next assay is male C57BL/6J mice. Kind of assay: Test Example 2: antifeedant activity of NMU-23 and NMU-8 in mice. It counts as in vivo. The following applies: peripheral administration. How it is done: 7 weeks old male C57BL/6J mice (mean bodyweight: 25 g) delivered from the Japan Charles River Company were raised for 5 to 10 days after delivery under a feeding environment regulated for temperature and humidity with lighting time (25° C., 12 hours of lighted period and 12 hours of dark period, light was lit at 8:00). Four animals were placed in one cage. After handling the mice for 5 to 8 days, the animals were housed singly in each cage where a floor mesh was spread and acclimated by intraperitoneal injection for 3 days prior to the administration of a peptide. The animals acclimated were fasted for 16 hours from 18:00 prior to the administration of the peptide. However, the animals had free access to drinking water. […] After the injection of the peptide solution, MF feed which had been weighed (Oriental Yeast Industry) was given freely to the mice. Further, the residual amount of the feed was measured after 3, 6 and 24 hours. The food intakes at 3, 6 and 24 hours were calculated by subtracting the residual amount of the feed after 3, 6 and 24 hours from the amount of the feed that was originally given.
[In FIG. 2, * and ** tested by T-tests indicated to be lower at the levels of significance of 0.05 and 0.01 (P<0.05 and P<0.01]

Broadly, the IC50 is the concentration at which inhibition is half-maximal.

Take `CC(C)C[C@H](NC(=O)[C@H](Cc1ccccc1)NC(=O)[C@@H](N)Cc1ccc(O)cc1)C(=O)N[C@@H](Cc1ccccc1)C(=O)N[C@@H](CCCNC(=N)N)C(=O)N1CCC[C@H]1C(=O)N[C@@H](CCCNC(=N)N)C(=O)N[C@@H](CC(N)=O)C(N)=O` [NMU-8, Try-Phe-Leu-Phe-Arg-Pro-Arg-Asn-NH2]: the half-maximal inhibitory concentration (IC50) on Human FM3 is 0.19 nM. The “antifeedant activity via peripheral administration” value with male C57BL/6J mice was “did not express an antifeedant activity”.
